Assay results taken from patent US20190343873A1, “SEQUENCE-SELECTIVE GENE EXPRESSION REGULATORS” (KYOTO UNIVERSITY, priority 2018, published 2019).

Experiments:
[1] = target: T1, Nuc1 histones / recombinant human P300 (Homo sapiens, UniProt Q09472); assay: HAT reaction followed by LC-MS/MS analysis of histone peptides; assay type: biochemical; conditions: 2.5 μM vs 0 compound, Nuc1 500 nM, P300 50 nM, Ac-CoA 10 μM
T1 construct: 10 nM recombinant human P300 (amino acids 965-1810); purchased BPS Bioscience 50071
T1 sequence (Q09472 965-1810): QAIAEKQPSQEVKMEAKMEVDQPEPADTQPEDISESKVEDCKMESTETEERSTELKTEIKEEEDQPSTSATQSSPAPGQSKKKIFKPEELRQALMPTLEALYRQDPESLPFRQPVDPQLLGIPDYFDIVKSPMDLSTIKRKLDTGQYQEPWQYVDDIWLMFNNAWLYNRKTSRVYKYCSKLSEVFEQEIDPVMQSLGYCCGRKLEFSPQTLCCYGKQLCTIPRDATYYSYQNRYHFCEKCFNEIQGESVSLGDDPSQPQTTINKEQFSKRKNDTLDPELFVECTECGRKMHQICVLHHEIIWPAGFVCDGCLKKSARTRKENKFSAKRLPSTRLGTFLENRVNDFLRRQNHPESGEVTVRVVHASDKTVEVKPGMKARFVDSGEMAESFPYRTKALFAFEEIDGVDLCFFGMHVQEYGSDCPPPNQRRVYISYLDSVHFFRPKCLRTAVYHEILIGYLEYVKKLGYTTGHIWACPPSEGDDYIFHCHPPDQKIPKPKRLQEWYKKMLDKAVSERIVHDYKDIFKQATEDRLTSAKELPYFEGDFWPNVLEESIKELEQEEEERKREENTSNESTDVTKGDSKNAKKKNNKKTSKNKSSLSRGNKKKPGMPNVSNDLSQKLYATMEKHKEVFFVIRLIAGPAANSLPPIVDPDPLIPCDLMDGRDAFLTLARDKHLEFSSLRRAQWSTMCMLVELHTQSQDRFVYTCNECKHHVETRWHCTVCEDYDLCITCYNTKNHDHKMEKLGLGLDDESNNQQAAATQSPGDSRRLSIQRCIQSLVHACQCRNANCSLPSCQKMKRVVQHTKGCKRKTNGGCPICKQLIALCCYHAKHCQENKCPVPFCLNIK
Procedure: Histone acetylation with Bi-PIP was directly confirmed by mass spectrometry analysis. After HAT reaction using Nuc1 (500 nM), B PIP1 (0 or 2.5 μM), recombinant human P300 (50 nM) and Ac-CoA (10 μM), the histones were processed through propionylation of unmodified lysine, tryptic digestion, and propionylation of terminal amine. The resulting peptides were analyzed by liquid chromatography-tandem mass spectrometry (LC-MS/MS).

[2] = target: T2, Nuc1 (reconstituted nucleosome with five match sequences for Bi-PIP1) / recombinant human P300 (Homo sapiens, UniProt Q09472); assay: HAT reaction-in vitro ChIP-qPCR with recombinant P300, acetylation of Nuc1; assay type: biochemical; conditions: mixture of Nuc1 and Nuc2
T2 construct: 10 nM recombinant human P300 (amino acids 965-1810); purchased BPS Bioscience 50071
T2 sequence (Q09472 965-1810): T1 sequence (Q09472 965-1810)
From the text: (§1) To test sequence-selective histone acetylation by Bi-PIP, a biochemical assay (HAT reaction-in vitro ChIP-qPCR) was established by combining HAT reaction followed by immunoprecipitation utilizing reconstituted nucleosomes as reported previously (Nguyen et al., Nat. Methods 2014, 11, 834-40) and quantitative polymerase chain reaction (qPCR) (FIGS. 2A to 2C).
(§2) Mononucleosomes were reconstituted utilizing a salt-dialysis method from a histone octamer and DNA templates that each have a Widom 601 nucleosome positioning sequence and five PIP-binding sequences: 5′-AACAGTCA-3′ for Bi-PIP1 and 5′-AGCCGCCA-3′ for Bi-PIP2 (FIG. 2A). Gel electrophoresis confirmed that the majority of DNA templates were successfully formed on the nucleosome. […]
(§3) To a HAT reaction (15 μL), 85 μL of an AB buffer (20 mM Tris-HCl, pH 7.5, 50 mM NaCl, 5 mM EDTA) containing 1/500 volume of anti-acetylated H3 (Abcam, ab47915) was added and rotated for 1 hour at room temperature. […] The DNA solution was diluted, and amount of the precipitated each nucleosome was measured by qPCR utilizing SYBR FAST qPCR Kit (Kapa Bioscience) on LightCycler 480 (Roche Diagnostics GmbH) (FIG. 2B). Cp values were determined by the 2nd derivative maximum method and relative […] amount was calculated by the ΔΔCp method. […]

[3] = test system: Nuc1 / HeLa nuclear extract; assay: HAT reaction-in vitro ChIP-qPCR with HeLa nuclear extract as HAT resource, Nuc1; assay type: biochemical, human; conditions: 100 nM compound; HeLa nuclear extract 2% v/v; FIG. 6
[4] = test system: HEK293T cells; assay: Transcriptome analysis (microarray) of cells treated with Bi-PIPs; assay type: cell-based, human; conditions: 1 μM, 15 hours; for downregulated transcripts: criteria <−2-fold change and <0.05 P value vs vehicle; for most upregulated protein-coding gene among uniquely activated transcripts: criteria >1.5- or <−1.5-fold change, FIG. 7A; for upregulated transcripts: criteria >2-fold change and <0.05 P value vs vehicle; for change in global gene expression (in words) / transcripts commonly upregulated by both Bi-PIP1 and Bi-PIP2: microarray
Procedure: Considering the fundamental role of P300/CBP as the transcriptional coactivator to activate gene expression, transcriptome analyses of total RNA extracted from cells (HEK293T cells) treated with Bi-PIPs were performed. […]
HEK293T line was purchased from ATCC and maintained in DMEM (Thermo Fisher Scientific) supplemented with 10% (v/v) fetal bovine serum (FBS, Sigma Aldrich) at 37° C. with 5% CO2. For the Bi-PIP treatment, the cells were seeded on 24 well plates (2×10^5 cells/well). After one day, 1 μM of each Bi-PIP and 4 μM of Endo-Porter (10% polyethylene glycol form, Gene Tools) were added. As a vehicle, 0.1% DMSO (v/v) was used. After 15 hours of Bi-PIP treatment, RNA was extracted using FastGene™ RNA Basic Kit (Nippon Genetics) following manufacture's instruction.
The quality of RNA was checked with Bioanalyzer (Agilent Technologies) using Agilent RNA 6000 Pico Kit (Agilent Technologies). The total RNA was processed by GeneChip WT PLUS Reagent Kit (Affymetrix) and hybridized to Human Gene 2.1 ST Array Strip (Affymetrix) using GeneChip Hybridization, Wash, and Stain Kit (Affymetrix). Fluidics and scanning were conducted in GeneAtlas System (Affymetrix) using GeneChip Hybridization, Wash, and Stain Kit (Affymetrix). Data normalization, summarization and comparison were performed using Transcriptome Analysis Console v4 (Affymetrix).

[5] = target: T3, Nuc2 (reconstituted nucleosome with five match sequences for Bi-PIP2) / recombinant human P300 (Homo sapiens, UniProt Q09472); assay: HAT reaction-in vitro ChIP-qPCR with recombinant P300, acetylation of Nuc2; assay type: biochemical; conditions: 100 nM compound, mixture of Nuc1 and Nuc2
T3 construct: 10 nM recombinant human P300 (amino acids 965-1810); purchased BPS Bioscience 50071
T3 sequence (Q09472 965-1810): T1 sequence (Q09472 965-1810)
From the text: as §1, §2, §3

Row | acetylation in the N-terminal region of histone H4 (H4K5ac, H4K8ac, H4K12ac) [1] | signal intensity of peptides containing acetyl lysine at the N-terminal tail region of H3 (H3K14ac, H3K18ac, H3K23ac, H3K27ac, H3K36ac) [1] | acetylation of Nuc1 (anti-acetylated H3 ChIP-qPCR) ([2]; 100 nM compound, P300 0, 1, 3, 10, 30, 100 nM, FIG. 3) | acetylation of target nucleosome Nuc1 (anti-acetylated H3 ChIP-qPCR) ([2]; 100 nM each compound, 10 nM P300 (amino acids 965-1810), FIG. 4) | acetylation of Nuc2 (anti-acetylated H3 ChIP-qPCR) ([5]; P300 0, 1, 3, 10, 30, 100 nM, FIG. 3) | Compound | acetylation of Nuc1 in nuclear extract [3] | downregulated transcripts [4] | most upregulated protein-coding gene among uniquely activated transcripts [4] | upregulated transcripts [4] | change in global gene expression (in words) [4] | transcripts commonly upregulated by both Bi-PIP1 and Bi-PIP2 [4] | acetylation of Nuc2 (anti-acetylated H3 ChIP-qPCR) ([5]; 10 nM P300 (amino acids 965-1810), FIG. 5)
1 | acetylation was promoted | increase in the signal intensity | induced intensive acetylation | Nuc1-selective acetylation | acetylation was not induced | Cc1noc(C)c1-c1ccc2c(c1)nc(CCc1ccc(OCCNC(=O)CCCCC(=O)NCCOCCOCC(=O)NCCOCCOCC(=O)Nc3cn(C)c(C(=O)Nc4cc(C(=O)Nc5cc(C(=O)NCCC(=O)Nc6cn(C)c(C(=O)Nc7cc(C(=O)NCCCC(=O)Nc8cc(C(=O)Nc9cc(C(=O)NCCC(=O)Nc%10cn(C)c(C(=O)Nc%11cc(C(=O)Nc%12cc(C(=O)NCCCN(C)C)n(C)c%12)n(C)c%11)n%10)n(C)c9)n(C)c8)n(C)c7)n6)n(C)c5)n(C)c4)n3)cc1)n2CCN1CCOCC1 [Bi-PIP1] | enhanced acetylation of Nuc1 | 258 | NTS | 473 | greater transcriptome changes | 247 | –
2 | – | – | – | – | – | Cc1noc(C)c1-c1ccc2c(c1)nc(CCc1ccc(OCCNC(=O)CCCCC(=O)NCCOCCOCC(=O)NCCOCCOCC(=O)Nc3cn(C)c(C(=O)Nc4cn(C)c(C(=O)NCCC(=O)Nc5cn(C)c(C(=O)Nc6cn(C)c(C(=O)Nc7cc(C(=O)NCCCC(=O)Nc8cn(C)c(C(=O)Nc9cc(C(=O)NCCC(=O)Nc%10cn(C)c(C(=O)Nc%11cc(C(=O)Nc%12cc(C(=O)NCCCN(C)C)n(C)c%12)n(C)c%11)n%10)n(C)c9)n8)n(C)c7)n6)n5)n4)n3)cc1)n2CCN1CCOCC1 [Bi-PIP2] | – | 137 | IER5L | 446 | greater transcriptome changes | 247 | selective acetylation of Nuc2
